Legend:
[1] = test system: severe atopic dermatitis-induced NC/Nga mice; experiment: Severe atopic dermatitis model, SCORAD evaluation; type: in vivo; conditions: baseline, before treatment with test materials; positive control group
Protocol: RHT-3201 according to the present invention was used as a test material, while steroid-based dexamethasone (Sigma Co. Ltd), which is used as a main therapeutic agent for severe atopic dermatitis, was used as a positive control. An extract of Dermatophagoides farina, which is a major species of house dust mite, was used as an atopy inducing material. The extract was purchased in an ointment form from Central Lab. Animal Inc.
The dexamethasone was prepared by being dissolved in ethanol into a concentration of 0.1% (w/v), and RHT-3201 of the present invention was prepared by being dissolved in distilled water to doses of 1×10^8 CFU/0.5 ml/mouse, 1×10^9 CFU/0.5 ml/mouse, and 1×10^10 CFU/0.5 ml/mouse, respectively. […]
In the present evaluation, the severity of atopic dermatitis was expressed as a total of evaluation scores of five items, using SCORAD (SCORing Atopic Dermatitis), which is a generally used method for clinical macroscopic evaluation. […] The scores for the five items (no symptom (score 0), mild symptom (score 1), moderate symptom (score 2), severe symptom (score 3) for each item) were added up, while the evaluation score was determined between the lowest score of 0 (a state in which there is no symptom) and the highest score of 15 (a state in which the symptoms for all items were severe). The severity of the mouse skin lesions was evaluated every week (see FIG. 6). […]

[2] = Body weight measurement during administration; type: in vivo, NC/Nga mice; conditions: administration during eight weeks; dexamethasone transdermal, RHT-3201 oral (FIG. 9)
Protocol: The dexamethasone was prepared by being dissolved in ethanol into a concentration of 0.1% (w/v), and RHT-3201 of the present invention was prepared by being dissolved in distilled water to doses of 1×10^8 CFU/0.5 ml/mouse, 1×10^9 CFU/0.5 ml/mouse, and 1×10^10 CFU/0.5 ml/mouse, respectively. All the samples to be administered were prepared on the testing day. The dexamethasone was coated on the skin of a testing subject at 100 μl for each subject twice a week, while RHT-3201 according to the present invention was orally administered at 0.5 ml for each subject using a mouse zonde once a day. Distilled water was administered for a normal group and an atopy control group. The administration was conducted for 8 weeks in all the test groups.
The number of scratching behaviors for 15 minutes was counted once a week from week 1 of administration of a test drug. Only the number of scratching behaviors using a hind leg was counted in order to avoid counting scratching behaviors due to the other causes besides scratching behaviors due to pruritus. Meanwhile, the weight loss tends to occur due to side effects of drugs and stress at the time of inducing severe atopic dermatitis. In order to investigate whether the side effect of weight loss occurs by the test materials of the present invention, the test animals were weighed during the administration period of the test materials.

Which “Severe atopic dermatitis score Mean ± SE (n = 6)” value [1] does the source give for `C[C@@H]1C[C@H]2[C@@H]3CCC4=CC(=O)C=C[C@]4(C)[C@@]3(F)[C@@H](O)C[C@]2(C)[C@@]1(O)C(=O)CO` [Dexamethasone, dexamethasone] here?
The value was 10.8 ± 0.4.

What about the “change in body weight” value [2] of the same compound?
The value was “weight loss for 4 weeks”.
